Results reported in patent US20250163074A1, “CDK Inhibitors And Their Use As Pharmaceuticals” (Prelude Therapeutics Incorporated, priority 2020, published 2025).
Like-named read-outs stand apart in the source and are kept apart here.

How the values were obtained:
[1] = system: MCF7 adenocarcinoma cell line; experiment: Cell proliferation studies in MCF7 cells (ATP-Lite); type: cell-based; settings: 10 days incubation, cell viability by ATP-Lite luminescence, read-out: PROLIFERATION_CTG_MCF7 IC50
Procedure: Cell Proliferation Studies in MCF7 Cells
Cell proliferation studies were conducted in MCF7 adenocarcinoma cell line. Cells were maintained in DMEM (Corning, Catalog #: 10-013-CV) supplemented with 10% v/v FBS (Gibco, Catalog #: 26140-079), 1% v/v Penicillin Streptomycin (Gibco, Catalog #15140-122) Cells were seeded in 384-well plates at a density of 100 or 200 cells/well. Compounds dissolved in DMSO were plated in quadruplicate using a digital dispenser (D300E, Tecan) and tested on a 9-point 3-fold serial dilution. Cells were incubated for 10 days in a 37° C. active humidified incubator at 5% CO2. A media exchange and second compound addition were performed on day 5. Cell viability was measured using the ATP-Lite 1-Step Luminescence reagent (Perkin Elmer, Catalog #: 6016731) as per manufacturer's instructions. Luminescence signal was measured with a multimode plate reader (Envision 2105, Perkin Elmer). Raw data files were imported to Dotmatics Screening Ultra for IC50 analysis. Luminescence values were normalized to both background and DMSO controls to obtain a percentage of viable cells relative to DMSO vehicle control.

[2] = target: CDK4/Cyclin D1 (Homo sapiens (Human), UniProt P11802); experiment: CDK4/CyclinD1 enzymatic activity assay (TR-FRET); type: biochemical; settings: CDK4/CyclinD1 1 nM, ATP 2 mM, read-out: CDK4_D1 IC50
Procedure: CDK4/CyclinD1 Enzymatic Activity Assay
The inhibitory activity of compounds was evaluated in vitro using TR-FRET assay with white 384-well low volume microplate (Greiner Bio-One). CDK4/Cyclin D1 catalyzed phosphorylation of peptide in the presence and absence of compounds was measured. IC50 determination. Recombinant protein complex CDK4/Cyclin D1, expressed from insect cell, was purchased from ProQinase. Testing compounds were dissolved in DMSO at 0.1 mM and tested in 9-dose IC50 mode. The reaction mixture was prepared by mixing CDK4/CyclinD1 (1 nM final), ULight-4E-BP1 (100 nM final, Perkinelmer, TRF0128-D), and ATP (2 mM final) in assay buffer (20 mM of HEPES pH 7.4, 1 mM of EGTA, 0.05% BSA, 0.005% Tween 20, and 1 mM TCEP). The compound of interest in DMSO was added to each well in 3-fold serial dilution by dispenser (TECAN D300E). After 20 minutes preincubation at room temperature, MgCl2 (10 mM final) was added to initiate the reaction. Following a 60 minutes incubation at 37° C., the reaction was stopped by addition of 2 μL of quenching buffer consisting of Lance detection buffer (Perkinelmer CR97-100C), 2 nM LANCE Ultra Europium-anti-P-4E-BP1 (Perkinelmer, TRF0216-D), 10 mM EDTA, and incubate at room temperature for additional 60 minutes in dark. The reaction signal was measured by Envision multimode plate reader (PerkinElmer, 2102-0010). IC50 values were determined by fitting the data to the standard 4 parameters with Hill Slope using GraphPad Prism software.

Chain of CDK4/Cyclin D1 (P11802 whole entry): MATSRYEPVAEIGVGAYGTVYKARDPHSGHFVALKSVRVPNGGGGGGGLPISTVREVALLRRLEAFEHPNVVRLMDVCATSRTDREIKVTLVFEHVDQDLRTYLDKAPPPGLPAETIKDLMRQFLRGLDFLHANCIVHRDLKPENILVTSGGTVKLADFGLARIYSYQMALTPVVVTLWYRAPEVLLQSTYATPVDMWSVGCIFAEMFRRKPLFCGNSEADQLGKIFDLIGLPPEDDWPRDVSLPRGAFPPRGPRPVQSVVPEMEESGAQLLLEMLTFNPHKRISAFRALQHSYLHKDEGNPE
Chain of CDK4/Cyclin D1 (P24385 whole entry partner): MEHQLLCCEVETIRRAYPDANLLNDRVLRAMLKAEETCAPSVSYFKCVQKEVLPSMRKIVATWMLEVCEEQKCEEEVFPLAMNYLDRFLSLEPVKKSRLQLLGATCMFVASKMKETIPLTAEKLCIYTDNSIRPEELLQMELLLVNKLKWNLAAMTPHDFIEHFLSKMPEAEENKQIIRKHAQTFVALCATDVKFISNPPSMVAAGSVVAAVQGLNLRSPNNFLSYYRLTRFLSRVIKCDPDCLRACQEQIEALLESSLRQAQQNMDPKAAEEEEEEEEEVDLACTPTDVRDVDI

Row | IC50 ([1]; Homo sapiens, 240 h) | IC50 [2] | IC50 [1] | SMILES
1 |  | 20 to 200 nM |  | CCN1CC2(C1)CN(c1ccc(Nc3ncc(F)c(-c4ccc5c(c4)C4(CCC4)CN(C)C5=O)n3)nc1)C2 [Example 69, 6′-(2-((5-(6-Ethyl-2,6-diazaspiro[3.3]heptan-2-yl)pyridin-2-yl)amino)-5-fluoropyrimidin-4-yl)-2′-methyl-2′,3′-dihydro-1′H-spiro[cyclobutane-1,4′-isoquinolin]-1′-one]
2 |  | ≤ 20 nM |  | C/C=C/CN1CCC(c2ccc(Nc3ncc(F)c(-c4sc5c(c4C)C(=O)N(C)C54CC4)n3)nc2)C1 (stereo not drawn) [Example 72, (E)-2′-(2-((5-(1-(But-2-en-1-yl)pyrrolidin-3-yl)pyridin-2-yl)amino)-5-fluoropyrimidin-4-yl)-3′,5′-dimethylspiro[cyclopropane-1,6′-thieno[2,3-c]pyrrol]-4′(5′H)-one]
3 |  | 20 to 200 nM |  | CCN1CC2(C1)CN(c1ccc(Nc3ncc(F)c(-c4cc5c(s4)C4(CCCCC4)CN(CC)C5=O)n3)nc1)C2 [Example 75, 5′-Ethyl-2′-(2-((5-(6-ethyl-2,6-diazaspiro[3.3]heptan-2-yl)pyridin-2-yl)amino)-5-fluoropyrimidin-4-yl)-5′,6′-dihydro-4′H-spiro[cyclohexane-1,7′-thieno[3,2-c]pyridin]-4′-one]
4 |  | ≤ 20 nM |  | CCN1CC2(C1)CN(c1ccc(Nc3ncc(F)c(-c4cc5c(s4)C4(CN(C)C5=O)CC5(CC5)C4)n3)nc1)C2 [Example 76, 2″-(2-((5-(6-Ethyl-2,6-diazaspiro[3.3]heptan-2-yl)pyridin-2-yl)amino)-5-fluoropyrimidin-4-yl)-5″-methyl-5″,6″-dihydro-4″H-dispiro[cyclopropane-1,1′-cyclobutane-3′,7″-thieno[3,2-c]pyridin]-4″-one]
5 |  | 20 to 200 nM |  | CN1CCC(c2ccc(Nc3ncc(F)c(-c4ccc5c(c4)C4(CCCC4)N(C)C5=O)n3)nc2)CC1 [Example 79, 6′-(5-Fluoro-2-((5-(1-methylpiperidin-4-yl)pyridin-2-yl)amino)pyrimidin-4-yl)-2′-methylspiro[cyclopentane-1,1′-isoindolin]-3′-one]
6 |  | 20 to 200 nM |  | CN1CCC(c2ccc(Nc3ncc(F)c(-c4cc5c(s4)C4(CN(C)C5=O)CC(F)(F)C4)n3)nc2)CC1 [Example 84, 3,3-Difluoro-2′-(5-fluoro-2-((5-(1-methylpiperidin-4-yl)pyridin-2-yl)amino)pyrimidin-4-yl)-5′-methyl-5′,6′-dihydro-4′H-spiro[cyclobutane-1,7′-thieno[3,2-c]pyridin]-4′-one]
7 |  | 20 to 200 nM |  | CCN1CC2(C1)CN(c1ccc(Nc3ncc(F)c(-c4cc5c(s4)C4(CN(C)C5=O)CC(F)(F)C4)n3)nc1)C2 [Example 85, 2′-(2-((5-(6-Ethyl-2,6-diazaspiro[3.3]heptan-2-yl)pyridin-2-yl)amino)-5-fluoropyrimidin-4-yl)-3,3-difluoro-5′-methyl-5′,6′-dihydro-4′H-spiro[cyclobutane-1,7′-thieno[3,2-c]pyridin]-4′-one]
8 |  | 20 to 200 nM |  | CN1CCC(c2ccc(Nc3ncc(F)c(-c4cc5c(s4)C4(CCCC4)CN(C)C5=O)n3)nn2)CC1 [Example 87, 2-[5-Fluoro-2-[[6-(1-methylpiperidin-4-yl)pyridazin-3-yl]amino]pyrimidin-4-yl]-5-methylspiro[6H-thieno[3,2-c]pyridine-7,1′-cyclopentane]-4-one]

The next lines start with the molecule.

Row | SMILES | IC50 ([1]; Homo sapiens, 240 h) | IC50 [2] | IC50 [1]
9 | CCN1C(=O)c2c(sc(-c3nc(Nc4ccc(C5CCN(C)CC5)cn4)ncc3Cl)c2C)C12CC2 [Example 11, 2′-(5-Chloro-2-((5-(1-methyl-piperidin-4-yl)pyridin-2-yl)amino)pyrimidin-4-yl)-5′-ethyl-3′-methylspiro[cyclopropane-1,6′-thieno[2,3-c]pyrrol]-4′(5′H)-one] | 20 to 200 nM | ≤ 20 nM | 
10 | CCN1C(=O)c2cc(-c3nc(Nc4ccc(N5C[C@H]6CN(C)C[C@H]6C5)cn4)ncc3C)sc2C12CC2 [Example 17] |  | ≤ 20 nM | 20 to 200 nM
11 | CCN1C(=O)c2cc(-c3nc(Nc4ccc(C5CCN(C)CC5)cn4)ncc3C)sc2C12CC2 [Example 19, 5′-Ethyl-2′-[5-methyl-2-[[5-(1-methylpiperidin-4-yl)pyridin-2-yl]amino]pyrimidin-4-yl]spiro[cyclopropane-1,6′-thieno[2,3-c]pyrrole]-4′-one] | 20 to 200 nM | ≤ 20 nM | 
12 | CCN1CCC(c2ccc(Nc3ncc(F)c(-c4cc5c(s4)C4(CC4)CN(C)C5=O)n3)nc2)C1 (stereo not drawn) [Example 31, 2′-(2-((5-(1-Ethylpyrrolidin-3-yl)pyridin-2-yl)amino)-5-fluoropyrimidin-4-yl)-5′-methyl-5′,6′-dihydro-4′H-spiro[cyclo-propane-1,7′-thieno[3,2-c]pyridin]-4′-one] | 200 to 2000 nM | ≤ 20 nM | 
13 | Cc1c(-c2nc(Nc3ccc(N4CC5CC(C4)N5C)cn3)ncc2F)sc2c1C(=O)N(C)CC21CC1 [Example 33, 2′-(5-Fluoro-2-((5-(6-methyl-3,6-diazabicyclo[3.1.1]heptan-3-yl)pyridin-2-yl)amino)pyrimidin-4-yl)-3′,5′-dimethyl-5′,6′-dihydro-4′H-spiro[cyclopropane-1,7′-thieno[3,2-c]pyridin]-4′-one] | 20 to 200 nM | ≤ 20 nM | 
14 | CCN1CCN(Cc2ccc(Nc3ncc(F)c(-c4sc5c(c4C)C(=O)N(C)CC54CC4)n3)nc2)CC1 [Example 38, 2′-(2-((5-((4-Ethylpiperazin-1-yl)methyl)pyridin-2-yl)amino)-5-fluoropyrimidin-4-yl)-3′,5′-dimethyl-5′,6′-dihydro-4′H-spiro[cyclopropane-1,7′-thieno[3,2-c]pyridin]-4′-one] | 200 to 2000 nM | ≤ 20 nM | 
15 | CCN1CC2(C1)CN(c1ccc(Nc3ncc(C)c(-c4sc5c(c4C)C(=O)N(C)CC54CC4)n3)nc1)C2 [Example 42, 2-[2-[[5-(6-Ethyl-2,6-diazaspiro[3.3]heptan-2-yl)pyridin-2-yl]amino]-5-methylpyrimidin-4-yl]-3,5-dimethylspiro[6H-thieno[3,2-c]pyridine-7,1′-cyclopropane]-4-one] | 20 to 200 nM | ≤ 20 nM | 
16 | CCN1CC2(C1)CN(c1ccc(Nc3ncc(Cl)c(-c4sc5c(c4C)C(=O)N(C)CC54CC4)n3)nc1)C2 [Example 44] |  | ≤ 20 nM | 20 to 200 nM
17 | CN1CC2(CCC2)c2sc(-c3nc(Nc4ccc(C5CCN(CC(F)F)CC5)cn4)ncc3F)cc2C1=O [Example 49, 2′-(2-((5-(1-(2,2-Difluoroethyl)piperidin-4-yl)pyridin-2-yl)amino)-5-fluoropyrimidin-4-yl)-5′-methyl-5′,6′-dihydro-4′H-spiro[cyclobutane-1,7′-thieno[3,2-c]pyridin]-4′-one] |  | ≤ 20 nM | 
18 | CCN1CCC12CN(c1ccc(Nc3ncc(F)c(-c4cc5c(s4)C4(CCC4)CN(C)C5=O)n3)nc1)C2 [Example 51, 2′-(2-((5-(1-Ethyl-1,6-diazaspiro[3.3]heptan-6-yl)pyridin-2-yl)amino)-5-fluoropyrimidin-4-yl)-5′-methyl-5′,6′-dihydro-4′H-spiro[cyclobutane-1,7′-thieno[3,2-c]pyridin]-4′-one] | 20 to 200 nM | ≤ 20 nM | 
19 | CCN1CCN(Cc2ccc(Nc3ncc(F)c(-c4sc5c(c4C)C(=O)N(C)CC54CCC4)n3)nc2)CC1 [Example 56, 2′-(2-((5-((4-Ethylpiperazin-1-yl)methyl)pyridin-2-yl)amino)-5-fluoropyrimidin-4-yl)-3′,5′-dimethyl-5′,6′-dihydro-4′H-spiro[cyclobutane-1,7′-thieno[3,2-c]pyridin]-4′-one] |  | ≤ 20 nM | 
20 | CN1CCN(c2ccc(Nc3ncc(F)c(-c4cc5c(s4)C4(CCCC4)CN(C)C5=O)n3)nc2)C(C(F)(F)F)C1 (stereo not drawn) [Example 65, 2-[5-Fluoro-2-[[5-[4-methyl-2-(trifluoromethyl)piperazin-1-yl]pyridin-2-yl]amino]pyrimidin-4-yl]-5-methylspiro[6H-thieno[3,2-c]pyridine-7,1′-cyclopentane]-4-one] |  | ≤ 20 nM | 
21 | CCN1CCN(Cc2ccc(Nc3ncc(F)c(-c4ccc5c(c4)C4(CCCC4)CN(C)C5=O)n3)nc2)CC1 [Example 68, 6′-(2-((5-((4-Ethylpiperazin-1-yl)methyl)pyridin-2-yl)amino)-5-fluoropyrimidin-4-yl)-2′-methyl-2′,3′-dihydro-1′H-spiro [cyclo-pentane-1,4′-isoquinolin]-1′-one] |  | ≤ 20 nM | 
